A value given as a limit tells only on which side of the number the result lay.

Experiment [1] deals with T1, PAR2 (HT-29 cells, SLIGKV activation) (Homo sapiens, UniProt P55085).
T1 construct: host or cells: HT-29 cells
T1 sequence (P55085 26-397): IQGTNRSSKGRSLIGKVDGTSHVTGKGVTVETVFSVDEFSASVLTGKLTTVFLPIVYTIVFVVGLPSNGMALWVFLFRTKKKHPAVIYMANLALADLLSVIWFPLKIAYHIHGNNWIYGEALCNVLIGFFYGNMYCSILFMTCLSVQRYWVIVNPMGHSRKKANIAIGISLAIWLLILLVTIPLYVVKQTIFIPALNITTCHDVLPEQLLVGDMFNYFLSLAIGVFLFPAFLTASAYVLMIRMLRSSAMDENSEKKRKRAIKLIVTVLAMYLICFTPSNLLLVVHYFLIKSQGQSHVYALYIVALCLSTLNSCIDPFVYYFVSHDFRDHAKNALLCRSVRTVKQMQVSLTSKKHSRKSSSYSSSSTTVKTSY
The experiment can be described thus: Ca FLIPR TETRA assay, ANTAGONIST mode, stimulation with 8 μM SLIGKV. Type of experiment: cell-based. The settings on record: HT-29 cells, stimulation with 8 μM SLIGKV. In short, it runs like this: (§1)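 Inhibition of activator-evoked Ca2+ flux was recorded on FLIPR Tetra in HT-29 cells after 30 min compound exposure at r.t. A prior read checked whether compounds alone triggered Ca2+ release.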

The test system of experiment [2] is Thrombin-stimulated Ca2+ response in HT-29 cells. Description: Ca FLIPR TETRA assay, ANTAGONIST mode, stimulation with 1 U/mL Thrombin. Type of experiment: cell-based, human. The settings on record: Homo sapiens, HT-29 cells, stimulation with 1 U/mL Thrombin. The method in brief:
as §1

Experiment [3] deals with T2, PAR2 (HT-29 cells, trypsin activation) (Homo sapiens, UniProt P55085).
T2 construct: host or cells: HT-29 cells
T2 sequence (P55085 26-397): T1 sequence (P55085 26-397)
Description: Ca FLIPR TETRA assay, ANTAGONIST mode, stimulation with 3.1 U/mL trypsin. As to conditions: HT-29 cells, stimulation with 3.1 U/mL trypsin. Type of experiment: cell-based. The method in brief:
as §1

Experiment [4] has as its system UTP-stimulated Ca2+ response in HT-29 cells. The experiment can be described thus: Ca FLIPR TETRA assay, ANTAGONIST mode, stimulation with 0.6 μM UTP. Type of experiment: cell-based, human. The settings on record: Homo sapiens, HT-29 cells, stimulation with 0.6 μM UTP. In short, it runs like this:
as §1

As to `CCc1cc(-c2ccc(F)cc2)nn2cc(C(=O)N3CCN(C(=O)[C@H](O)C(C)C)[C@@H](C)C3)nc12` [Compound I-168], the IC50 in experiment [1] stood at 67 nM; in experiment [2], 16000 nM; in experiment [3], 350 nM; in experiment [4], 13000 nM.
For `CCc1cc(-c2ccc(F)cc2)nn2cc(C(=O)N3CCN(C(=O)[C@H](O)CC(C)C)[C@@H](C)C3)nc12` [Compound I-169], the IC50 turned out to be 10 nM in experiment [1], 25000 nM in experiment [2], 17 nM in experiment [3] and 26000 nM in experiment [4].
As to `CCc1cc(-c2ccc(F)cc2)nn2cc(C(=O)N3CCN(C(=O)[C@H](O)CC4CC4)[C@@H](C)C3)nc12` [Compound I-170], the 50% inhibitory concentration (IC50) came out at 14 nM in experiment [1], 33000 nM in experiment [2], 38 nM in experiment [3] and 30000 nM in experiment [4].
As to `CC(C)c1cc(-c2ccc(F)cc2)nn2cc(C(=O)N3CCN(C(=O)[C@H](O)CC4CC4)[C@@H](C)C3)nc12` [Compound I-171], the IC50 in experiment [1] turned out to be 3 nM; in experiment [2] it was 15000 nM; in experiment [3], 5 nM; in experiment [4], 15000 nM.
For `CCc1cc(-c2ccc(F)cc2)nn2cc(C(=O)N3CCN(C(=O)[C@H](O)C(C)(C)C)[C@@H](C)C3)nc12` [Compound I-172], the IC50 in experiment [1] was determined as 22 nM; in experiment [2] it was 15000 nM; in experiment [3] it was 330 nM; in experiment [4], 15000 nM.
With `CCc1cc(-c2ccc(F)cc2)nn2cc(C(=O)N3CCN(C(=O)[C@H](O)CC4CC4)CC3(C)C)nc12` [Compound I-173], the half-inhibitory concentration (IC50) in experiment [1] came out at 8 nM; in experiment [2], 20000 nM; in experiment [3], 13 nM; in experiment [4], 23000 nM.
Consider `CC(C)c1cc(-c2ccc(F)cc2)nn2cc(C(=O)N3CCN(C(=O)C(C)(C)O)CC3(C)C)nc12` [Compound I-174], for which the IC50 in experiment [1] stood at 28 nM; in experiment [2], 35000 nM; in experiment [3] it was 55 nM; in experiment [4] it was 38000 nM.
Regarding `CC(O)C(=O)N1CCN(C(=O)c2cn3nc(-c4ccc(F)cc4)cc(C(C)C)c3n2)C(C)(C)C1` (stereo not shown) [Compound I-175], the concentration for half-maximal inhibition (IC50) in experiment [1] was 23 nM; in experiment [2] it was 41000 nM; in experiment [3], 60 nM; in experiment [4], 34000 nM.
Turning to `CC(C)c1cc(-c2ccc(F)cc2)nn2cc(C(=O)N3CCN(C(=O)C(O)C(C)C)CC3(C)C)nc12` (stereo not shown) [Compound I-176], the IC50 in experiment [1] is 6 nM; in experiment [2] it was 14000 nM; in experiment [3] it was 11 nM; in experiment [4], 17000 nM.
The corresponding values for `CC(C)c1cc(-c2ccc(F)cc2)nn2cc(C(=O)N3CCN(C(=O)[C@H]4CCC(=O)N4)CC3(C)C)nc12` [Compound I-177] are 48 nM, 35000 nM, 82 nM and 40000 nM.
On to `CC(C)c1cc(-c2ccc(F)cc2)nn2cc(C(=O)N3CCN(C(=O)C4(O)CCC4)C[C@H]3C)nc12` [Compound I-178], for which the IC50 came to 4800 nM in experiment [1], 43000 nM in experiment [2], 8300 nM in experiment [3] and 14000 nM in experiment [4].
The corresponding values for `CCC1(C)C(=O)NCCN1C(=O)c1cn2nc(-c3ccc(F)cc3)cc(C(C)C)c2n1` (stereo not shown) [Compound I-179] are 3 nM, 6900 nM, 11 nM and 8500 nM.
For `CC(C)c1cc(-c2ccc(F)cc2)nn2cc(C(=O)N3CCN(CC(C)(C)O)C(=O)C3(C)C)nc12` [Compound I-180], in that order: 32 nM, above 50000 nM, 41 nM and 18000 nM.
For `CC(C)c1cc(-c2ccc(F)cc2)nn2cc(C(=O)N3CCN(C)C(=O)C3(C)C)nc12` [Compound I-181], in that order: 10 nM, 10000 nM, 11 nM and 5800 nM.
In the case of `C[C@@H]1CN(c2cc(-c3ccc(F)cc3)nn3cc(C(=O)N4CCNC(=O)C4(C)C)nc23)C[C@H](C)O1` [Compound I-182], the IC50 in experiment [1] (antagonist mode) is 17.3 nM; in experiment [2] (antagonist mode), 1140 nM; in experiment [3] (antagonist mode), 40.3 nM; in experiment [4] (antagonist mode), 1270 nM.
For `C[C@H]1CN(c2cc(-c3ccc(F)cc3)nn3cc(C(=O)N4CCNC(=O)C4(C)C)nc23)C[C@H](C)O1` [Compound I-183], in that order: 15 nM, 840 nM, 33.6 nM and 810 nM.
As for `CC(C)(O)c1cc(-c2ccc(F)cc2)nn2cc(C(=O)N3CCNC(=O)C3(C)C)nc12` [Compound I-184, 4-[6-(4-fluorophenyl)-8-(1-hydroxy-1-methyl-ethyl)imidazo[1,2-b]pyridazine-2-carbonyl]-3,3-dimethyl-piperazin-2-one], the half-inhibitory concentration (IC50) in experiment [1] (antagonist mode) came to 125 nM; in experiment [2] (antagonist mode) it was 1450 nM; in experiment [3] (antagonist mode), 182 nM; in experiment [4] (antagonist mode), 1950 nM.
`C[C@@H]1CN(c2cc(-c3ccc(F)cc3)nn3cc(C(=O)N4CCN(C(=O)C(C)(C)O)CC4(C)C)nc23)C[C@H](C)O1` [Compound I-185]: the concentration for half-maximal inhibition (IC50) in experiment [1] (antagonist mode) is 117 nM; in experiment [2] (antagonist mode), above 5000 nM; in experiment [3] (antagonist mode), 157 nM; in experiment [4] (antagonist mode), above 5000 nM.
In the case of `CC(C)[C@@H](O)C(=O)N1CCN(C(=O)c2cn3nc(-c4ccc(F)cc4)cc(N4C[C@@H](C)O[C@@H](C)C4)c3n2)C(C)(C)C1` [Compound I-186], the half-maximal inhibitory concentration (IC50) was found to be 27.7 nM in experiment [1] (antagonist mode), 1500 nM in experiment [2] (antagonist mode), 38.7 nM in experiment [3] (antagonist mode) and 1800 nM in experiment [4] (antagonist mode).
As for `CC(C)c1cc(-c2ccc(F)cc2)nn2cc(C(=O)N3C[C@H](C)OCC3(C)C)nc12` [Compound I-187], the IC50 is 62.5 nM in experiment [1] (antagonist mode), above 50000 nM in experiment [2] (antagonist mode), 52.5 nM in experiment [3] (antagonist mode) and 33000 nM in experiment [4] (antagonist mode).
Regarding `CN1CCN(C(=O)c2cn3nc(-c4ccc(F)cc4)cc(C(C)(C)C)c3n2)C(C)(C)C1=O` [Compound I-188], the concentration for half-maximal inhibition (IC50) in experiment [1] (antagonist mode) is 1.8 nM; in experiment [2] (antagonist mode), 2500 nM; in experiment [3] (antagonist mode) it was 4 nM; in experiment [4] (antagonist mode), 3900 nM.
The corresponding values for `CC(C)(CO)c1cc(-c2ccc(F)cc2)nn2cc(C(=O)N3CCNC(=O)C3(C)C)nc12` [Compound I-189] are 400 nM, above 1000 nM, 417 nM and above 50000 nM.
As for `CC(C)(C)OC(=O)N1CCN(C(=O)c2cn3nc(-c4ccc(F)cc4)cc(C(C)(C)C)c3n2)C(C)(C)C1` [Compound I-190], the IC50 in experiment [1] (antagonist mode) was 4.2 nM; in experiment [2] (antagonist mode) it was above 50000 nM; in experiment [3] (antagonist mode) it was 4.8 nM; in experiment [4] (antagonist mode), above 50000 nM.
For the molecule `CN(C)C(=O)C(C)(C)c1cc(-c2ccc(F)cc2)nn2cc(C(=O)N3CCNC(=O)C3(C)C)nc12` [Compound I-192], the half-maximal inhibitory concentration (IC50) in experiment [1] (antagonist mode) is 575 nM; in experiment [2] (antagonist mode), above 50000 nM; in experiment [3] (antagonist mode), 8950 nM; in experiment [4] (antagonist mode) it was above 50000 nM.
With `COCC(C)(C)c1cc(-c2ccc(F)cc2)nn2cc(C(=O)N3CCNC(=O)C3(C)C)nc12` [Compound I-193], the half-inhibitory concentration (IC50) was found to be 5.3 nM in experiment [1] (antagonist mode), 10000 nM in experiment [2] (antagonist mode), 46 nM in experiment [3] (antagonist mode) and 19000 nM in experiment [4] (antagonist mode).

One may read the IC50 as the point on the concentration scale where inhibition reaches its midpoint.

Source of the values: patent US20190119282A1, “IMIDAZOPYRIDAZINES USEFUL AS INHIBITORS OF THE PAR-2 SIGNALING PATHWAY” (Vertex Pharmaceuticals Incorporated, priority 2013, published 2019).
